Tests used:
[1] = system: Venturia inaequalis; experiment: foliar fungal disease control on plants, Venturia inaequalis on apple; type: in vivo; conditions: 100 ppm foliar spray plus root drench ca. 40 ppm a.i./dry soil, one or two days before inoculation
Protocol: (§1) The technique employed was as follows.
(§2) The plants were grown in John Innes Potting Compost (No. 1 or 2) in 4 cm diameter minipots. The test compounds were formulated either by bead milling with aqueous Dispersol T or as a solution in acetone or acetone/ethanol which was diluted to the required concentration immediately before use. For the foliage diseases, the formulations (100 ppm active ingredient) were sprayed on to the foliage and applied to the roots of the plants in the soil. The sprays were applied to maximum retention and the root drenches to a final concentration equivalent to approximately 40 ppm a.i./dry soil. Tween 20, to give a final concentration of 0.05%, was added when the sprays were applied to cereals.
(§3) For most of the tests the compound was applied to the soil (roots) and to the foliage (by spraying) one or two days before the plant was inoculated with the disease. An exception was the test on Erysiphe graminis in which the plants were inoculated 24 hours before treatment. Foliar pathogens were applied by spray as spore suspensions onto the leaves of test plants. After inoculation, the plants were put into an appropriate environment to allow infection to proceed and then incubated until the disease was ready for assessment. The period between inoculation and assessment varied from four to fourteen days according to the disease and environment.
(§4) The disease control was recorded by the following grading: […]

[2] = system: Pyricularia oryzae; type: in vivo; conditions: 100 ppm foliar spray plus root drench ca. 40 ppm a.i./dry soil, one or two days before inoculation
[3] = system: Phytophthora infestans; type: in vivo; conditions: 100 ppm foliar spray plus root drench ca. 40 ppm a.i./dry soil, one or two days before inoculation
[4] = system: Plasmopara viticola; experiment: foliar fungal disease control on plants, Plasmopara viticola on vine; type: in vivo; conditions: 100 ppm foliar spray plus root drench ca. 40 ppm a.i./dry soil, one or two days before inoculation
Protocol: as §1, §2, §3, §4

[5] = system: Puccinia recondita; experiment: foliar fungal disease control on plants, Puccinia recondita on wheat; type: in vivo; conditions: 100 ppm foliar spray plus root drench ca. 40 ppm a.i./dry soil, one or two days before inoculation
Protocol: as §1, §2, §3, §4

[6] = system: Erysiphe graminis; experiment: foliar fungal disease control on plants, Erysiphe graminis on barley; type: in vivo; conditions: 100 ppm foliar spray plus root drench ca. 40 ppm a.i./dry soil; inoculated 24 hours before treatment
Protocol: as §1, §2, §3, §4

[7] = system: Cercospora arachidicola; experiment: foliar fungal disease control on plants, Cercospora arachidicola on peanut; type: in vivo; conditions: 100 ppm foliar spray plus root drench ca. 40 ppm a.i./dry soil, one or two days before inoculation
Protocol: as §1, §2, §3, §4

[8] = system: Diabrotica balteata; experiment: whole plant or invertebrate; conditions: in Zea mays, 72 h, read-out: grading of mortality, DB
[9] = system: Blattella germanica; experiment: whole plant or invertebrate; conditions: 72 h, read-out: grading of mortality, BG
[10] = system: Nilaparvata lugens; experiment: whole plant or invertebrate; conditions: in Oryza sativa, 72 h, read-out: grading of mortality, NL
[11] = system: Myzus persicae; experiment: whole plant or invertebrate; conditions: in Brassica rapa, 72 h, read-out: grading of mortality, MP
[12] = system: Musca domestica; experiment: whole plant or invertebrate; conditions: 24 h, read-out: grading of mortality, MD
[13] = system: Tetranychus urticae (spider mites - adult); experiment: whole plant or invertebrate; conditions: in Phaseolus vulgaris, 72 h, read-out: grading of mortality, TUa
[14] = system: Tetranyhus urticae (spider mites - ova); experiment: whole plant or invertebrate; conditions: 144 h, read-out: grading of mortality, TUe
[15] = system: Meloidogyne incognita; experiment: nematode test, tomato root knot eelworm - larvae, semi in-vitro; type: in vivo; conditions: 250 ppm, residual, 7 days
Protocol: The activity of the compounds was determined using a variety of insect, mite and nematode pests. The compounds were used in the form of liquid preparations containing 500 parts per million (ppm) by weight of the compound except for the test on Meloidogyne incognita when liquid preparations of 250 ppm by weight were used. The preparations were made by dissolving the compounds in acetone and diluting the solutions with water containing 0.1% by weight of a wetting agent sold under the trade name "SYNPERONIC" NX until the liquid preparations contained the required concentration of the product. "SYNPERONIC" is a Registered Trade Mark.
The test procedure adopted with regard to each pest was basically the same and comprised supporting a number of the pests on a medium which was usually a host plant or a foodstuff on which the pests feed, and treating either or both the pests and the medium with the preparations. The mortality of the pests was then assessed at periods usually varying from one to seven days after the treatment.
The results of the tests are given in Table IX for each of the products as a grading of mortality designated as 9, 5 or 0 where 9 indicates 80-100% mortality (70-100% root-knot reduction as compared with untreated plants for Meloidogyne incognita), 5 indicates 50-79% mortality (50-69% root knot reduction for Meloidogyne incognita) and 0 indicates less than 50% mortality (root-knot reduction for Meloidogyne incognita).
In Table IX the pest organism used in designated by a letter code and the pests species, the support medium or food, and the type and duration of test is given in Table VII.

SMILES	disease control grading, VENTURIA INAEQUALIS (Apple) [1]	disease control grading, P[…] (Rice) [2]	disease control grading, PH[…] (TOMATOES) [3]	disease control grading, […] (Vine) [4]	disease control grading, PUCCINIA RECONDITA (Wheat) [5]	disease control grading, ERYSIPHE GRAMINIS (Barley) [6]	disease control grading, CERCOSPCRA ARACHIDICOLA (Peanut) [7]	mortality at 500 ppm [8] [%]	mortality at 500 ppm [9] [%]	mortality at 500 ppm [10] [%]	mortality at 500 ppm [11] [%]	mortality at 500 ppm [12] [%]	mortality at 500 ppm [13] [%]	mortality at 500 ppm [14] [%]	grading of root-knot reduction, MI [15]
C=CCO/N=C\c1cccn1/C(=C\OC)C(=O)OC [Compound 4 of Table I]	4	4	4	4	4	4	4	–	–	–	–	–	–	–	–
CO/C=C(/C(=O)OC)n1cccc1CN1CCOCC1 [Compound 5 of Table II]	4	0 (60-100% of disease on untreated plants)	0 (60-100% of disease on untreated plants)	0 (60-100% of disease on untreated plants)	2 (6-25% of disease on untreated plants)	2 (6-25% of disease on untreated plants)	4	–	–	–	–	–	–	–	–
CO/C=C(/C(=O)OC)n1cccc1/C=N/OCc1ccccc1 [Compound 5 of Table I]	4	4	0 (60-100% of disease on untreated plants)	4	3 (trace - 5% of disease on untreated plants)	3 (trace - 5% of disease on untreated plants)	3 (trace - 5% of disease on untreated plants)	–	–	–	–	–	–	–	–
C#CCO/N=C/c1cccn1/C(=C\OC)C(=O)OC [Compound 7 of Table I]	4	4	3 (trace - 5% of disease on untreated plants)	4	4	4	4	80 to 100	50 to 79	< 50	< 50	< 50	80 to 100	< 50	0 (less than 50% mortality (root-knot reduction for Meloidogyne incognita))
CCOC(=O)/C(C#N)=C/c1cccn1/C(=C\OC)C(=O)OC [Compound 19 of Table I]	0 (60-100% of disease on untreated plants)	0 (60-100% of disease on untreated plants)	0 (60-100% of disease on untreated plants)	4	4	0 (60-100% of disease on untreated plants)	3 (trace - 5% of disease on untreated plants)	–	–	–	–	–	–	–	–

From patent publication US4883807A, “1,2,5,6-tetrahydropyridyl triazoles and tetrazoles useful as fungicides” (Imperial Chemical Industries PLC, priority 1986, dated 1989)
